In patent publication US9826759B2, “Avenanthramide-enriched oat product” (THE QUAKER OATS COMPANY, priority 2014, dated 2017):

How the values were obtained:
[1] = Oxygen Radical Absorbance Capacity (ORAC) assay, antioxidant activity; format: biochemical; settings: individual avenanthramides
Protocol: To test the effect of varying avenanthramide ratios on antioxidant activity and inflammation in vitro, the inventors created an avenanthramide ingredient from pure avenanthramides which had similar ratios of avenanthramides 2c:2p:2f as was present in each of the three different oat fractions: hulls, flour, and trichomes. Thereafter, antioxidant activity was measured using the ORAC assay and anti-inflammatory effect was measured using an NF-κB inhibitory assay.
The first avenanthramide ingredient was created from 2c:2p:2f having a ratio of about 1:1:1, which corresponded to the concentration present in oat hulls. The second avenanthramide ingredient had avenanthramides 2c:2p:2f having a ratio of about 1:1:2, which corresponded to the concentration present in oat flour. Finally, the last avenanthramide ingredient tested had 2c:2p:2f in a ratio of about 1:2:2, which corresponded to the concentration present in oat trichomes. An ORAC assay was used to measure the antioxidant activity of each of these avenanthramide ingredients and the results are presented in Table 1.

[2] = Peterson et al., 2001; cited from earlier work

Row | Structure (SMILES) | ORAC [1] | antioxidant activity in vitro [2]
1 | O=C(/C=C/c1ccc(O)c(O)c1)Nc1ccc(O)cc1C(=O)O [Avenanthramide 2c, avenanthramide 2c] | 33741.00 A* TE/g | highest antioxidant activity
2 | COc1cc(/C=C/C(=O)Nc2ccc(O)cc2C(=O)O)ccc1O [Avenanthramide 2f, avenanthramide 2f] | 21812.67 B TE/g | 
3 | O=C(/C=C/c1ccc(O)cc1)Nc1ccc(O)cc1C(=O)O [Avenanthramide 2p, avenanthramide 2p] | 18504.33 B TE/g | 
